Experimental data taken from US8742100B2, “Small molecule inhibitors of isoprenylcysteine carboxyl methyltransferase with potential anticancer activity” (National University of Singapore, priority 2009, dated 2014).
Read-outs that look alike come from different tables or passages of the source.

Tests used:
fetal bovine serum = assay: Binding to fetal bovine serum (plasma protein binding), centrifugal filter device, HPLC; type: in vitro ADME; settings: fetal bovine serum
Method: (§1) Semi-automatic high-throughput determination of plasma protein binding using a 96-well plate filtrate assembly and fast liquid chromatography—tandem mass spectrometry. […] Stock solutions were prepared in DMSO at 100× higher concentrations. A 5% w/v solution of fetal bovine serum in phosphate buffered saline was prepared. An aliquot (10 μL of the stock solution was added to 990 μL of the PBS solution containing 5% fetal bovine serum in a glass tube which was then incubated in a shaking water bath at 37° C. for 30 min. 500 μL of the solution was then transferred to a centrifugal filter device (Amicon Ultra 0.5 ml # UFC503096) and centrifuged at 14 000g, 15 min. After this time, the filter units were removed and placed (upside down) in a collecting tube containing 477 μL, of PBS. The latter was centrifuged at 2000g, 2 min to obtain the retentate. […] J.

[1] = as above; type: in vitro ADME; settings: bovine, 5% w/v fetal bovine serum in phosphate buffered saline; for fraction unbound at 30 min, 1 µM / fraction unbound at 30 min, 4 µM / fraction unbound at 30 min, 10 µM / fraction unbound at 30 min, 25 µM: 5% fetal bovine serum in PBS
Method: as §1

[2] = read-out: % Bound Average (converted)
[3] = read-out: % Bound Run 1 (converted)
[4] = read-out: % Bound Run 2 (converted)
[5] = read-out: % Bound Run 3 (converted)

- fraction unbound at 30 min, 1 µM [1, 2]: 0.182
- fraction unbound at 30 min, 1 µM [1, 3]: 0.17
- fraction unbound at 30 min, 1 µM [1, 4]: 0.224
- fraction unbound at 30 min, 1 µM [1, 5]: 0.151
- fraction unbound at 30 min, 4 µM [1, 2]: 0.272
- fraction unbound at 30 min, 4 µM [1, 3]: 0.274
- fraction unbound at 30 min, 4 µM [1, 4]: 0.301
- fraction unbound at 30 min, 4 µM [1, 5]: 0.243
- fraction unbound at 30 min, 10 µM [1, 2]: 0.299
- fraction unbound at 30 min, 10 µM [1, 3]: 0.317
- fraction unbound at 30 min, 10 µM [1, 4]: 0.353
- fraction unbound at 30 min, 10 µM [1, 5]: 0.226
- fraction unbound at 30 min, 25 µM [1, 2]: 0.304
- fraction unbound at 30 min, 25 µM [1, 3]: 0.286
- fraction unbound at 30 min, 25 µM [1, 4]: 0.352
- fraction unbound at 30 min, 25 µM [1, 5]: 0.275
- fraction unbound at 30 min ([1]; all conc (1, 4, 10, 25 uM), read-out: % Bound Average, all conc (converted)): 0.264
SMILES: CCCCCCCCn1cc(CN(CC)CC)c2cc(-c3cccc(C)c3)ccc21 [Compound J17G, N-ethyl-N-((1-octyl-5-m-tolyl-1H-indol-3-yl)methyl)ethanamine]
- binding capacity compared with cysmethynil (fetal bovine serum): lower binding capacities than cysmethynil
